Reference: US9707229B2, “Compositions and methods for treating an infection” (CMPD LICENSING, LLC, priority 2015, dated 2017)

Columns and labels:
Format in all cases: cell-based
[1] = system: Proteus mirabilis; experiment: Expected efficacy of antibiotic agents; conditions: Gram: neg
[2] = system: Campylobacter jejuni; experiment: Expected efficacy of antibiotic agents; conditions: Gram: neg
[3] = system: Brucella species
[4] = system: Methicillin resistant staph aureus (MRSA); experiment: Expected efficacy of antibiotic agents; conditions: Gram: pos
[5] = system: Legionella pneumophila
[6] = system: Haemophilus parainfluenzae; experiment: Expected efficacy of antibiotic agents; conditions: Gram: neg
[7] = system: Acinetobacter calcoaceticus; experiment: Expected efficacy of antibiotic agents; conditions: Gram: neg
[8] = system: Citrobacter diversus; experiment: Expected efficacy of antibiotic agents; conditions: Gram: neg
[9] = system: Enterococcus faecalis; experiment: Expected efficacy of antibiotic agents; conditions: Gram: pos
[10] = system: Clostridium perfringens
[11] = system: Corynebacterium urealyticum; experiment: Expected efficacy of antibiotic agents; conditions: Gram: pos
[12] = system: Escherichia coli; experiment: Expected efficacy of antibiotic agents; conditions: Gram: neg
[13] = system: Streptococcus agalactiae; experiment: Expected efficacy of antibiotic agents; conditions: Gram: pos
[14] = system: Providencia rettgeri; experiment: Expected efficacy of antibiotic agents; conditions: Gram: neg
[15] = system: Klebsiella (Calymmatobacterium) granulomatis; experiment: Expected efficacy of antibiotic agents; conditions: Gram: neg
[16] = system: Bartonella bacilliformis; experiment: Expected efficacy of antibiotic agents; conditions: Gram: neg
[17] = system: Streptococcus pneumoniae; experiment: Expected efficacy of antibiotic agents; conditions: Gram: pos
[18] = system: Shigella dysenteriae; experiment: Expected efficacy of antibiotic agents; conditions: Gram: neg
[19] = system: Chlamydia pneumoniae; experiment: Expected efficacy of antibiotic agents; conditions: Gram: n/a
[20] = system: Neisseria meningitidis; experiment: Expected efficacy of antibiotic agents; conditions: Gram: neg
[21] = system: Enterococcus faecium; experiment: Expected efficacy of antibiotic agents; conditions: Gram: pos
[22] = system: Acinetobacter baumannii; experiment: Expected efficacy of antibiotic agents; conditions: Gram: neg
[23] = system: Klebsiella oxytoca; experiment: Expected efficacy of antibiotic agents; conditions: Gram: neg
[24] = system: Yersinia pestis
[25] = system: Shigella boydii; experiment: Expected efficacy of antibiotic agents; conditions: Gram: neg
[26] = system: Providencia stuartii; experiment: Expected efficacy of antibiotic agents; conditions: Gram: neg
[27] = system: Shigella sonnei; experiment: Expected efficacy of antibiotic agents; conditions: Gram: neg
[28] = system: Vibrio cholerae; experiment: Expected efficacy of antibiotic agents; conditions: Gram: neg
[29] = system: Moraxella catarrhalis; experiment: Expected efficacy of antibiotic agents; conditions: Gram: neg
[30] = system: Streptococcus pyogenes; experiment: Expected efficacy of antibiotic agents; conditions: Gram: pos
[31] = system: Bordetella pertussis; experiment: Expected efficacy of antibiotic agents; conditions: Gram: neg
[32] = system: Mycoplasma pneumoniae; experiment: Expected efficacy of antibiotic agents; conditions: Gram: n/a
[33] = system: Morganella morganii; experiment: Expected efficacy of antibiotic agents; conditions: Gram: neg
[34] = system: Citrobacter freundii; experiment: Expected efficacy of antibiotic agents; conditions: Gram: neg
[35] = system: Klebsiella pneumoniae; experiment: Expected efficacy of antibiotic agents; conditions: Gram: neg
[36] = system: Proteus vulgaris; experiment: Expected efficacy of antibiotic agents; conditions: Gram: neg
[37] = system: Enterobacter sakazakii; experiment: Expected efficacy of antibiotic agents; conditions: Gram: neg
[38] = system: Clostridium difficile; experiment: Expected efficacy of antibiotic agents; conditions: Gram: anaer
[39] = system: Haemophilus ducreyi; experiment: Expected efficacy of antibiotic agents; conditions: Gram: neg
[40] = system: Bacteroides fragilis; experiment: Expected efficacy of antibiotic agents; conditions: Gram: anaer
[41] = system: Diphtheroids; experiment: Expected efficacy of antibiotic agents; conditions: Gram: pos
[42] = system: Haemophilus influenzae; experiment: Expected efficacy of antibiotic agents; conditions: Gram: neg
[43] = system: Chlamydia psittaci
[44] = system: Viridans group streptococci; experiment: Expected efficacy of antibiotic agents; conditions: Gram: pos
[45] = system: Rickettsiae
[46] = system: Staphylococcus aureus (MSSA); experiment: Expected efficacy of antibiotic agents; conditions: Gram: pos
[47] = system: Serratia marcescens; experiment: Expected efficacy of antibiotic agents; conditions: Gram: neg
[48] = system: Enterobacter aerogenes; experiment: Expected efficacy of antibiotic agents; conditions: Gram: neg
[49] = system: Acinetobacter lwoffii; experiment: Expected efficacy of antibiotic agents; conditions: Gram: neg
[50] = system: Pseudomonas fluorescens; experiment: Expected efficacy of antibiotic agents; conditions: Gram: neg
[51] = system: Shigella flexneri; experiment: Expected efficacy of antibiotic agents; conditions: Gram: neg
[52] = system: Corynebacterium jeikeium; experiment: Expected efficacy of antibiotic agents; conditions: Gram: pos
[53] = system: Peptostreptococcus; experiment: Expected efficacy of antibiotic agents; conditions: Gram: pos
[54] = system: Neisseria gonorrhoeae; experiment: Expected efficacy of antibiotic agents; conditions: Gram: neg
[55] = system: Salmonella typhi; experiment: Expected efficacy of antibiotic agents; conditions: Gram: neg
[56] = system: Pseudomonas aeruginosa; experiment: Expected efficacy of antibiotic agents; conditions: Gram: neg
[57] = system: Chlamydia trachomatis; experiment: Expected efficacy of antibiotic agents; conditions: Gram: n/a
[58] = system: Staphylococcus epidermidis; experiment: Expected efficacy of antibiotic agents; conditions: Gram: pos
[59] = system: Francisella tularensis
[60] = system: Enterobacter cloacae; experiment: Expected efficacy of antibiotic agents; conditions: Gram: neg
[61] = system: Aspergillus fumigatus; experiment: Expected efficacy of antifungal agents
[62] = system: Aspergillus flavus; experiment: Expected efficacy of antifungal agents
[63] = system: Coccidioides immitis; conditions: expected efficacy
[64] = system: Cryptococcus neoformans; experiment: Expected efficacy of antifungal agents
[65] = system: Histoplasma capsulatum; conditions: expected efficacy
[66] = system: Candida species; experiment: Expected efficacy of antifungal agents
[67] = system: Blastomyces dermatitidis; experiment: Expected efficacy of antifungal agents

CN[C@H](CC(C)C)C(=O)N[C@H]1C(=O)N[C@@H](CC(N)=O)C(=O)N[C@H]2C(=O)N[C@H]3C(=O)N[C@H](C(=O)N[C@H](C(=O)O)c4cc(O)cc(O)c4-c4cc3ccc4O)[C@H](O)c3ccc(c(Cl)c3)Oc3cc2cc(c3O[C@@H]2O[C@H](CO)[C@@H](O)[C@H](O)[C@H]2O[C@H]2C[C@](C)(N)[C@H](O)[C@H](C)O2)Oc2ccc(cc2Cl)[C@H]1O [Vancomycin]
no: efficacy against Proteus mirabilis [1] | efficacy against Campylobacter jejuni [2] | efficacy against Brucella species [3] | efficacy against Legionella pneumophila [5] | efficacy against Haemophilus parainfluenzae [6] | efficacy against Acinetobacter calcoaceticus [7] | efficacy against Citrobacter diversus [8] | efficacy against Clostridium perfringens [10] | efficacy against Escherichia coli [12] | efficacy against Providencia rettgeri [14] | efficacy against Klebsiella (Calymmatobacterium) granulomatis [15] | efficacy against Bartonella bacilliformis [16] | efficacy against Shigella dysenteriae [18] | efficacy against Chlamydia pneumoniae [19] | efficacy against Neisseria meningitidis [20] | efficacy against Acinetobacter baumannii [22] | efficacy against Klebsiella oxytoca [23] | efficacy against Yersinia pestis [24] | efficacy against Shigella boydii [25] | efficacy against Providencia stuartii [26] | efficacy against Shigella sonnei [27] | efficacy against Vibrio cholerae [28] | efficacy against Moraxella catarrhalis [29] | efficacy against Bordetella pertussis [31] | efficacy against Mycoplasma pneumoniae [32] | efficacy against Morganella morganii [33] | efficacy against Citrobacter freundii [34] | efficacy against Klebsiella pneumoniae [35] | efficacy against Proteus vulgaris [36] | efficacy against Enterobacter sakazakii [37] | efficacy against Haemophilus ducreyi [39] | efficacy against Bacteroides fragilis [40] | efficacy against Haemophilus influenzae [42] | efficacy against Chlamydia psittaci [43] | efficacy against Rickettsiae [45] | efficacy against Serratia marcescens [47] | efficacy against Enterobacter aerogenes [48] | efficacy against Acinetobacter lwoffii [49] | efficacy against Pseudomonas fluorescens [50] | efficacy against Shigella flexneri [51] | efficacy against Neisseria gonorrhoeae [54] | efficacy against Salmonella typhi [55] | efficacy against Pseudomonas aeruginosa [56] | efficacy against Chlamydia trachomatis [57] | efficacy against Francisella tularensis [59] | efficacy against Enterobacter cloacae [60]
yes: efficacy against Methicillin resistant staph aureus (MRSA) [4] | efficacy against Enterococcus faecalis [9] | efficacy against Corynebacterium urealyticum [11] | efficacy against Streptococcus agalactiae [13] | efficacy against Streptococcus pneumoniae [17] | efficacy against Streptococcus pyogenes [30] | efficacy against Clostridium difficile [38] | efficacy against Diphtheroids [41] | efficacy against Viridans group streptococci [44] | efficacy against Staphylococcus aureus (MSSA) [46] | efficacy against Corynebacterium jeikeium [52] | efficacy against Peptostreptococcus [53] | efficacy against Staphylococcus epidermidis [58]
yes, not VRE: efficacy against Enterococcus faecium [21]

OC(Cn1cncn1)(Cn1cncn1)c1ccc(F)cc1F [Fluconazole]
yes: efficacy against Aspergillus fumigatus [61] | efficacy against Aspergillus flavus [62] | efficacy against Coccidioides immitis [63] | efficacy against Cryptococcus neoformans [64] | efficacy against Histoplasma capsulatum [65] | efficacy against Candida species [66] | efficacy against Blastomyces dermatitidis [67]
